Test results: patent US10136641B2, “Methods for increasing tolerance to abiotic stress in plants” (Crop Microclimate Management Inc., priority 2010, dated 2018)

Assays:
Format in all cases: in vivo
[1] = test system: apple; experiment: Apple field trial (heat, light and/or water stress), Shepparton, Victoria
Experimental: (§1) Field trials were carried out in parts of commercial orchards or fields in Australia during the 2009-2010 season. Crops were evaluated for specific parameters impacted by abiotic stress including fruit diameter, fruit number, amount of sunburn damage and number of flowers aborted. The crops evaluated were apple, citrus, tomato and wine grape. […] Heat and light stress occurred early during the trials, with exposures to 40° C.^+ temperatures in November; about 4-6 weeks after the trials were initiated. This period of stress was followed by varied temperatures including temperatures that were in the mid-to-high 30° C. range.
(§2) The foliage and fruit for each crop were assessed prior to treatment and then at regular intervals through the season for any signs of phytotoxicity. No phytotoxicity was observed on either the foliage or the fruit for any of the applied formulations for any of the crops. In addition, all trials were determined to be disease and pest free.
(§3) Screen (kaolin), Screen Duo (kaolin and salicylate), Surround (kaolin) and Parasol (calcium carbonate) are standard treatments used in the management of heat, light and water stress. Kaolin and calcium carbonate reduce stress by reflecting UV, visible, and infrared radiation, thereby reducing the impact of excess heat and light on photosynthesis and other cellular processes.
(§4) The citrus and apple trials received four and five applications, respectively, of the various formulations, set forth in Table 1 (below), prior to experiencing abiotic stress. Tomatoes received biweekly applications of the treatments throughout the trial.
As described above for citrus, early season heat, light and/or water stress can also impede cell division that occurs during Phase I of fruit development of apples. In the apple trial, which was conducted in Shepparton, Victoria, Australia, the load of fruit on each of the trees was thinned to an approximately equal value (approximately 200 fruit per tree; +/−5%), thus eliminating the confounding effect of fruit load on fruit diameter. To assess sunburn/heat stress damage, all apples were harvested from the center tree in each plot and rated according to the following rating system.
Rating Visual Assessment of the Fruit
1 Slight yellowing on the exposed side (<5% of the fruit area)
2 Noticeable yellowing on the exposed side (>5% of the fruit area)
3 Moderate sunburn with pronounced lenticels (fruit unmarketable)
4 Significant sunburn (fruit unmarketable)

[2] = test system: citrus; experiment: Citrus field trial (heat, light and/or water stress), Cobram, Victoria
Experimental: as §1, §2, §3, §4
In general, a lower fruit load results in greater fruit diameter at harvest. Early season differences in fruit diameter are due to variation in cell division. It is well documented that at equal fruit load, heat stress will result in smaller fruit (i.e., reduced fruit diameter). In addition, heat, light, and/or water stress can also result in fruit number losses, commonly known in citrus as “June drop.” Past studies indicate that protecting the crop with Screen/Duo starting at petal fall can result in larger fruit and higher numbers of fruit, most likely by reducing the crop temperature and reducing stress signaling reactive oxygen (ROX).
The trial described below was conducted in Cobram, Victoria, Australia. Several parameters were measured as responses to heat, light and/or water stress: early citrus fruit diameter, number of fruit per cubic meter foliage, percent sunburn, later season fruit diameter and kilograms of fruit per cubic meter foliage. Sunburn damage is the late stage result of combined heat and light stress. […] There was little correlation observed between fruit number and fruit size (correlation […]).

[3] = test system: wine grape; experiment: Wine grape field trial (sunburn/heat stress, yield), Kialla, Victoria
Experimental: as §1, §2, §3
The trial described below was conducted in Kialla, Victoria, Australia. The trial design was a randomized complete block with four replicates. Each plot comprises one panel of vines having four vines. For yield measurements the grapes were harvested from each of the two center vines in each panel and bunch numbers and weights were recorded. For assessment of sunburn/heat stress damage, the bunches of grapes were rated according to the following system: […]

[4] = test system: Tomato plants; experiment: Tomato pot trial, heat and light stress in the greenhouse; conditions: for Avg. growth in cm. (tomato fruits exposed to heat and light stress): April 2-May 10; for Avg growth in cm. (tomato fruits exposed to heat and light stress): April 2-May 18
Experimental: Tomato plants were exposed to heat and light stress in the greenhouse. Control plants had no treatment or were treated with Screen, Screen Plus1, Screen Plus2, or Screen Plus3, The experimental plants were treated with azelaic acid at 10^−4 M or 10^−3 M applied alone or in combination with Screen, Screen Plus1, Screen Plus2, or Screen Plus3.

[5] = test system: tomato; experiment: Tomato field trial (flower abortion, sunburn, yield), Echuca, Victoria
Experimental: as §1
The foliage and fruit for each crop were assessed prior to treatment and then at regular intervals through the season for any signs of phytotoxicity.
Kaolin and calcium carbonate reduce stress by reflecting UV, visible, and infrared radiation, thereby reducing the impact of excess heat and light on photosynthesis and other cellular processes.
as §4
Flower abortion in tomato results in significant yield losses in tomato and begins at temperatures of 28 C, becoming more severe as temperatures rise. Further, once fruit has developed, it is susceptible to damage from heat and light, expressed as sunburn.
In the present study, tomatoes, located in a commercial field outside Echuca, Victoria, Australia, were treated with azeleic acid (CMM2009A). The number of aborted flowers per plot was assessed periodically during the season. Tomato yield and sunburn damage was assessed as follows. Tomatoes from the center of each plot were harvested from a one meter section of the tomato beds. The fruit was visually assessed as being either red in color and suitable for processing, green in color, or sun burnt. The fruit from these three categories were kept separate, weighed and recorded.

[6] = test system: tomatoes; experiment: Tomato pot study with sebacic acid (high heat, light and water stress)
Experimental: A tomato pot study was conducted with sebacic acid to determine the activity of sebacic acid in increasing tolerance to abiotic stress. The tomatoes were grown in a standard medium in pots and subjected to the abiotic stresses of high heat, light, and water stress. Growth of the plants was used as a measure of the ability of the sebacic acid to reduce the impact of abiotic stress. Growth measurements were taken 32 days after treatment with sebacic acid

[7] = apple field trial, rates per Table 3
[8] = citrus, versus standard treatments
[9] = wine grape field trial, 10 Mar. 2010, four applications
[10] = azelaic at 10^−4M where applied, Screen applications at rate equivalent of 25 kg/ha

O=C(O)CCCCCCCC(=O)O [Azeleic acid, azelaic acid (nonanedioic acid)]
Fruit Diameter (mm) ([1]; apple field trial, 12 Dec. 2010, fruit load thinned to approx. 200 fruit per tree, rates per Table 3): 39.84 mm
% Fruit Sunburn 1&2 ([1]; apple field trial, 16 Feb. 2010, 1&2 are export grade or commercially acceptable grade apples, rates per Table 3): 87.4%
Yield kg/tree ([1]; apple field trial, 17 Mar. 2010, rates per Table 3): 42.8 kg/tree
Apple Size g/apple [1, 7]: 152 g/apple
Marketable Yield kg/tree [1, 7]: 37.4 kg/tree
Protecting cell division as measured by fruit diameter, percent sunburn, apple size, yield and marketable yield (in words) ([1]; apple, alone or in combination with kaolin, salicylate, glycine betaine, or multiples thereof): as effective as the standard treatments
Fruit Number per cubic meter ([2]; citrus field trial, 6 Jan. 2010, per cubic meter foliage, four applications, rates per Table 2): 10.62 per cubic meter
Fruit Diameter (mm) ([2]; citrus field trial, 12 Apr. 2010 (later season), four applications, rates per Table 2): 71.59 mm
Fruit Diameter (mm) ([2]; citrus field trial, 14 Dec. 2010 (early fruit diameter), four applications, rates per Rate column of Table 2): 29.49 mm
Percent Sunburn ([2]; citrus field trial, 28 Jan. 2010, four applications, rates per Table 2): 5.6%
kgs/cubic meter of foliage ([2]; citrus field trial, 29 Sep. 2010, kilograms of fruit, four applications, rates per Table 2): 3.8 kgs/cubic meter of foliage
Protecting cell division, as measured by early fruit diameter (in words) ([2]; citrus, azelaic acid alone versus Screen, Screen Duo, Surround and Parasol): as effective as the standard treatments
Protection from sunburn damage (in words) [2, 8]: equal to that obtained using the standard treatments
Reducing fruit loss (in words) [2, 8]: as effective in reducing fruit loss
Bunch Weight (grams) ([3]; wine grape field trial, 10 Mar. 2010, average weight of a bunch, four applications): 94.7 grams
Yield kg/ha [3, 9]: 9230 kg/ha
Yield kg/vine [3, 9]: 3.6 kg/vine
% Bunches Rating 1 + 2 ([3]; wine grape field trial, 10 Mar. 2010, rating 1 = 0%, 2 = 1-5% incidence of sunburn/heat stress on bunches, four applications, rates per Table 6): 96.8%
Protection from heat, water and light stress (bunch rating, yield, bunch weight; in words) ([3]; wine grape, alone or in combination with salicylate, kaolin, or combinations thereof): equivalent to or better than the standard treatments
Avg. growth in cm. (tomato fruits exposed to heat and light stress) ([4]; azelaic at 10^−3M, no Screen): 8.0 cm
Avg. growth in cm. (tomato fruits exposed to heat and light stress) [4, 10]: 11.0 cm
Avg growth in cm. (tomato fruits exposed to heat and light stress) ([4]; azelaic at 10^−3M, no Screen): 6.1 cm
Avg growth in cm. (tomato fruits exposed to heat and light stress) [4, 10]: 8.7 cm
Protection from the abiotic stress as measured by average fruit size (in words) ([4]; tomato pot trial, azelaic acid at 10^−4 M): equivalent to or better than the standard treatments
Yield Red MT/ha ([5]; 12 Mar. 2010, red fruit suitable for processing, ten applications): 131 MT/ha
Yield Sunburn MT/ha ([5]; 12 Mar. 2010, sun burnt fruit, ten applications): 6.6 MT/ha
Soluble Solids MT/ha ([5]; 12 Mar. 2010, ten applications): 6.2 MT/ha
Total Yield MT/ha ([5]; 12 Mar. 2010, ten applications): 137.6 MT/ha
Number Sunburn Fruit per plot ([5]; 20 Feb. 2010, ten applications, rates per Table 4): 21.3 per plot
Aborted Flowers per sq m of the plot ([5]; 20 Jan. 2010, ten applications, rates per Table 4): 5 per sq m of the plot
Protection from sunburn damage (in words) ([5]; alone or in combination with salicylate, kaolin, glycine betaine): equivalent to or better than the standard treatments
Number of flowers aborted (in words) ([5]; versus standard treatments): reduce the number of flowers aborted to the same degree as the standard treatments

sebacic acid (decanedioic acid)
Growth (mm) ([6]; tomato plants in pots, 1 × 10−4M, 32 days after treatment, high heat, light and water stress): 25.3 mm
Growth compared with the untreated plants (in words) ([6]; tomato pot trial, Table 7): statistically significant greater growth
